Reference: patent US20070128217A1 (priority 2003, published 2007)

How the values were obtained:
[1] = tested on: antibodies in sera from SARS patients (sera 1a, 1b, 2, 6, 37, 62, London, SARS-yellow, SARS-green); assay type: binding, human; design: Binding of serum 6 to linear peptides of protein X1 of SARS-CoV Urbani / Binding of serum 37 to linear peptides of protein X1 of SARS-CoV Urbani / Binding of serum 6 to looped/cyclic peptide (PEPSCAN-ELISA) / Binding of serum 37 to looped/cyclic peptide (PEPSCAN-ELISA) / Binding of serum 37 to looped/cyclic peptides of protein X1 of SARS-CoV Urbani / Binding of serum 6 to linear peptides of protein X2 / Binding of serum 37 to linear peptides of protein X2 / Binding of serum 37 to looped/cyclic peptides of protein X2 of SARS-CoV Urbani / Binding of serum 6 to linear peptides of protein M of SARS-CoV Urbani / Binding of serum 37 to linear peptides of protein M of SARS-CoV Urbani / Binding of serum 6 to looped/cyclic peptides of protein M of SARS-CoV Urbani / Binding of serum 37 to looped/cyclic peptides of protein M of SARS-CoV Urbani / Binding of serum 6 to linear peptides of protein X3 of SARS-CoV Urbani / Binding of serum 37 to linear peptides of protein X3 of SARS-CoV Urbani / Binding of serum 37 to looped/cyclic peptides of protein X3 of SARS-CoV Urbani / Binding of serum 6 to linear peptides of protein X4 of SARS-CoV Urbani / Binding of serum 37 to linear peptides of protein X4 of SARS-CoV Urbani / Binding of serum 37 to looped/cyclic peptides of protein X4 of SARS-CoV Urbani / Binding of serum 6 to linear peptides of protein X5 of SARS-CoV Urbani / Binding of serum 37 to linear peptides of protein X5 of SARS-CoV Urbani / Binding of serum 37 to looped/cyclic peptides of protein X5 of SARS-CoV Urbani / Binding of serum 6 to linear peptides of protein N of SARS-CoV Urbani / Binding of serum 37 to linear peptides of protein N of SARS-CoV Urbani / Binding of serum 6 to linear peptide (PEPSCAN-ELISA) / Binding of serum 1a to looped/cyclic peptides of protein N of SARS-CoV Urbani / Binding of serum 1b to looped/cyclic peptides of protein N of SARS-CoV Urbani / Binding of serum 2 to looped/cyclic peptides of protein N of SARS-CoV Urbani / Binding of serum 6 to looped/cyclic peptides of protein N of SARS-CoV Urbani / Binding of serum 37 to looped/cyclic peptides of protein N of SARS-CoV Urbani / Binding of serum 62 to looped/cyclic peptides of protein N of SARS-CoV Urbani / Binding of serum London to looped/cyclic peptides of protein N of SARS-CoV Urbani / Binding of serum SARS-green to looped/cyclic peptides of protein N of SARS-CoV Urbani: unit not given here
[2] = tested on: control sera (pooled serum of ten healthy LUMC hospital workers; commercial negative donor pooled serum from the Dutch bloodbank); assay type: binding, human
[3] = tested on: rabbit serum obtained by immunizing a rabbit with the SARS-CoV strain Frankfurt 1; assay type: binding; design: Binding of a rabbit serum to linear peptides / Binding of a rabbit serum to looped peptides / Rabbit serum linear peptides / Rabbit serum looped peptides / Binding of a rabbit serum to linear peptides of protein N of SARS-CoV Urbani (Rabbit serum linear peptides) / Binding of a rabbit serum to looped/cyclic peptides of protein N of SARS-CoV Urbani (Rabbit serum looped peptides): unit not given here

MYSFVSEETGTLIVN
0.2: Binding of a rabbit serum to looped peptides [3]
0.1: Binding of serum SARS-yellow to linear peptides of protein E of SARS-CoV Urbani [1]
0.7: Binding of serum 1a to looped/cyclic peptides of protein E of SARS-CoV Urbani [1] | Binding of serum 37 to looped/cyclic peptides of protein E of SARS-CoV Urbani [1] | Binding of Control serum LUMC to linear peptides [2]
0.8: Binding of serum 1a to linear peptides of protein E of SARS-CoV Urbani [1] | Binding of serum 1b to linear peptides of protein E of SARS-CoV Urbani [1] | Binding of serum 37 to linear peptides of protein E of SARS-CoV Urbani [1] | Binding of serum 62 to linear peptides of protein E of SARS-CoV Urbani [1] | Binding of serum 62 to looped/cyclic peptides of protein E of SARS-CoV Urbani [1] | Binding of serum SARS-yellow to looped/cyclic peptides of protein E of SARS-CoV Urbani [1] | Binding of Control serum Blood-bank to linear peptides [2] | Binding of Control serum LUMC to looped peptides [2]
0.4: Binding of serum London to looped/cyclic peptides of protein E of SARS-CoV Urbani [1] | Binding of serum SARS-green to looped/cyclic peptides of protein E of SARS-CoV Urbani [1]
0.6: Binding of serum 2 to linear peptides of protein E of SARS-CoV Urbani [1] | Binding of serum 2 to looped/cyclic peptides of protein E of SARS-CoV Urbani [1] | Binding of serum 6 to linear peptides of protein E of SARS-CoV Urbani [1] | Binding of serum London to linear peptides of protein E of SARS-CoV Urbani [1] | Binding of serum SARS-green to linear peptides of protein E of SARS-CoV Urbani [1] | Binding of Control Serum Blood-Bank to Looped peptides [2]
0.5: Binding of serum 1b to looped/cyclic peptides of protein E of SARS-CoV Urbani [1] | Binding of serum 6 to looped/cyclic peptides of protein E of SARS-CoV Urbani [1] | Binding of a rabbit serum to linear peptides [3]

IAEILIIIMRTFRIA
0.0: Binding of serum 6 to linear peptides of protein X3 of SARS-CoV Urbani [1]
0.5: Binding of serum 1b to linear peptides of protein X3 of SARS-CoV Urbani [1] | Binding of serum 2 to looped/cyclic peptides of protein X3 of SARS-CoV Urbani [1] | Binding of Control serum LUMC to linear peptides of the protein X3 of SARS-CoV Urbani [2]
0.3: Binding of serum 1b to looped/cyclic peptides of protein X3 of SARS-CoV Urbani [1] | Binding of serum SARS-green to linear peptides of protein X3 of SARS-CoV Urbani [1] | Binding of serum SARS-yellow to linear peptides of protein X3 of SARS-CoV Urbani [1] | Rabbit serum linear peptides [3]
0.9: Binding of Control serum Blood-bank to linear peptides of the protein X3 of SARS-CoV Urbani [2] | Binding of Control serum LUMC to looped peptides of the protein X3 of SARS-CoV Urbani [2]
0.8: Binding of serum 1a to linear peptides of protein X3 of SARS-CoV Urbani [1] | Binding of serum London to looped/cyclic peptides of protein X3 of SARS-CoV Urbani [1] | Binding of Control Serum Blood-Bank to Looped peptides of the protein X3 of SARS-CoV Urbani [2]
0.6: Binding of serum 2 to linear peptides of protein X3 of SARS-CoV Urbani [1] | Binding of serum 37 to linear peptides of protein X3 of SARS-CoV Urbani [1] | Binding of serum SARS-yellow to looped/cyclic peptides of protein X3 of SARS-CoV Urbani [1]
0.4: Binding of serum 37 to looped/cyclic peptides of protein X3 of SARS-CoV Urbani [1] | Binding of serum 62 to looped/cyclic peptides of protein X3 of SARS-CoV Urbani [1]
0.2: Binding of serum SARS-green to looped/cyclic peptides of protein X3 of SARS-CoV Urbani [1] | Rabbit serum looped peptides [3]
0.7: Binding of serum 1a to looped/cyclic peptides of protein X3 of SARS-CoV Urbani [1] | Binding of serum 6 to looped/cyclic peptides of protein X3 of SARS-CoV Urbani [1] | Binding of serum 62 to linear peptides of protein X3 of SARS-CoV Urbani [1] | Binding of serum London to linear peptides of protein X3 of SARS-CoV Urbani [1]
